One data set deals with Plasma of SD rat. Kind of data set: plasma protein binding rate test, equilibrium dialysis (rat). The data set is classed as in vitro ADME. As to conditions: 1 µM, 37°C, 6 hours. As for the experimental part:
(§1) Protein binding rates of the compound of the present invention in plasma of rat, monkey and human were determined by an equilibrium dialysis method. Tested compounds of the present invention were the compounds in Examples 6 and 8.
(§2) 3.1 A dry dialysis membrane was rinsed with ultrapure water for 2-3 times, and then soaked in a phosphate buffer for 1 hour for later use. Polytetrafluoroethylene module was soaked in 20% ethanol for 30 minutes, and then surface moisture was dried with dust-free paper for later use. The pretreated dialysis membrane was assembled into a dialysis plate according to the product specification, and one side (receptor compartment) of an osmotic membrane in each dialysis well was added with 100 µL of receptor fluid (100 mM phosphate buffer solution plus 0.002% Tween 80).
(§3) 3.2 The plasma was put into a centrifuge tube, a working solution of a tested substance was added into the plasma, wherein a final concentration was 1 µM, and the mixture was turned upside down and mixed evenly (this step was carried out in ice bath). 20 µL of drug-containing plasma each was taken, and was respectively transferred to a 96-well sample plate according to two parts in parallel, and stored in a refrigerator at -20°C as a T0 sample.
(§4) 3.3 Another 100 µL of the above drug-containing plasma was transferred to the other side (sample compartment) of the membrane in the dialysis device according to two parts in parallel, and incubated under vibration at a constant temperature of 37°C for 6 hours. […]
(§5) A plasma protein binding rate and a recovery rate of the compound in plasma were calculated by the following formulas: dissociation percentage (%) = CB /CA; [formula] plasma protein binding rate (fb%) = 1−dissociation percentage (%); [formula] recovery rate (%) = (CB+CA)/CT0 [formula] wherein CB was a concentration of the compound in the receptor fluid after equilibrium dialysis; CA was a concentration of the compound in the drug-containing plasma after equilibrium dialysis; and CT0 was an initial concentration of the compound in plasma.
Background: Equilibrium dialysis compares concentrations on both sides of a semipermeable membrane.

Data set [1] in a line: PK properties in SD rats with or without 0.2% alkyl glycoside (DDM). The data set is classed as in vivo. As to conditions: for Tmax: rat, in vivo; for Tmax shortened by: 0.2% DDM vs without DDM; for Tmax(DDM 0.2%)/ Tmax(DDM 0%): 0.2% dodecyl-β-D-maltoside (DDM) vs without DDM. The text has this:
During preparation of a test sample in the Test Example 5, a drug solution group with 0.2% dodecyl-β-D-maltoside (DDM) was also established and prepared in parallel, so as to compare and observe changes of PK properties in rats administered with the drug solution group with 0.2% dodecyl-β-D-maltoside (DDM) and the drug solution group without dodecyl-β-D-maltoside (DDM).

A short description of data set [2]: stability test in liver microsomes (rat). The data set is classed as in vitro ADME. To be noted: Rat liver microsomes. As for the experimental part:
The stability of the compound of the present invention in liver microsomes of rat, monkey and human was determined. Tested compounds of the present invention were the compounds in Examples 6 and 8 , and a control drug was Zavegepant.
3.2 An appropriate amount of liver microsome solution was transferred into a 1 mL 96-deep-well plate, added with a tested drug liquid (or a probe substrate solution), and pre-incubated in a thermal mixer at 37°C for 5 minutes. Two parts of mixed solutions were taken out from the system and added with 1×PBS to replace NADPH, and the mixed solutions were taken out at 0 and 60 minutes respectively, and added with methanol (containing an internal standard) to terminate the reaction. In the remaining mixed system, each well was added with NADPH to start the reaction. In the tested substance group, mixed solutions were taken out from the system at 0, 5, 15, 30, 45 and 60 minutes, and in the control group, mixed solutions were taken out from the system at 0, 30 and 60 minutes, and the mixed solutions were added methanol (containing an internal standard) to terminate the reaction. All samples of the terminated reaction were mixed evenly and centrifuged in a centrifuge at 3800 rpm for 15 minutes, and the supernatant was taken for LC-MS/MS analysis.
A peak area was determined by an extracted ion chromatogram. A slope value k was determined by linear regression of a remaining percentage of a parent drug relative to a natural logarithm of an incubation time curve. According to the slope, in-vitro half-life periods (t1/2) were respectively calculated, and in-vitro intrinsic clearance rates (CLint, represented by µL/min/mg protein) were calculated. Calculation formulas were as follows: t1/2 = ln2/k = 0.693/k; and CLint = 0.693/t1/2 /liver microsome protein concentration [formula]
A general note: Liver microsomes are vesicles of endoplasmic reticulum, rich in cytochrome P450 enzymes.

Data set [3] is described as follows: PK properties in SD rats with different concentrations of alkyl glycoside (0.05% and 5% DDM). To be noted: for Tmax: rat, in vivo; for Tmax(DDM 0.05%)/ Tmax(DDM 0%): 0.05% DDM vs without DDM; for Tmax(DDM 5%)/ Tmax(DDM 0%): 5% DDM vs without DDM. Format: in vivo. The text has this: During preparation of a test sample in the Test Example 7, drug solution groups with 0.05% and 5% dodecyl-β-D-maltosides (DDM) were established and prepared in parallel, so as to compare and observe changes of PK properties in rats administered with the drug solution groups with two different concentrations of dodecyl-β-D-maltosides (DDM).

In a further data set the test system is Plasma of human. Put plainly: plasma protein binding rate test, equilibrium dialysis (human). The data set is classed as in vitro ADME. As to conditions: 1 µM, 37°C, 6 hours. As for the experimental part:
as §1, §2, §3, §4, §5

Setting [4] is: intranasal, 0.05% alkyl glycoside vs without.
The mark [5] stands for this setting: intranasal, 5% alkyl glycoside vs without.

What is called Tmax is the time at which the peak concentration occurs. On to `Cc1cc(C[C@@H](NC(=O)N2CCC(c3cc4c([nH]c3=O)SCC4)CC2)C(=O)N2CCN(C3CCN(C)CC3)CC2)cc2cn[nH]c12` [Example 8, (R)-N-(3-(7-methyl-1H-indazole-5-yl)-1-(4-(1-methylpiperidine-4-yl)piperazine-1-yl)-1-oxopropan-2-yl)-4-(6-oxo-2,3,6,7-tetrahydrothieno[2,3-b]pyridine-5-yl)piperidine-1-formamide], for which the figures for the “fb (%)” value with Plasma of SD rat and with Plasma of human were 69.4% and 64.1%, respectively. The Tmax in data set [1] (Sprague-Dawley, inhaled or intranasal, 0.2% DDM) was 10 min; in data set [1] (Sprague-Dawley, inhaled or intranasal, not added with DDM (0%DDM)) it was 12.5 min; in data set [3] (Sprague-Dawley, inhaled or intranasal, 0.05% alkyl glycoside), 10 min; in data set [3] (Sprague-Dawley, inhaled or intranasal, 5% alkyl glycoside), 4.98 min; in data set [3] (Sprague-Dawley, inhaled or intranasal, without alkyl glycoside), 12 min. In addition, the “Tmax shortened by” value in data set [1] (intranasal) is 20.1%; in data set [3] (setting [4]) it was 20%; in data set [3] (setting [5]), 60%. Besides, the “Tmax(DDM 0.2%)/ Tmax(DDM 0%)” value in data set [1] (intranasal) was found to be 79.9%. The “% remaining (60 min)” value in data set [2] is given as 90.7%. Also, in data set [3] (intranasal), the “Tmax(DDM 0.05%)/ Tmax(DDM 0%)” value is on record as 79.9%. Moreover, the “Tmax(DDM 5%)/ Tmax(DDM 0%)” value in data set [3] (intranasal) was found to be 39.7%.
Turning to `Cc1cc(C[C@@H](NC(=O)N2CCC(c3cc4c([nH]c3=O)SCCC4)CC2)C(=O)N2CCN(C3CCN(C)CC3)CC2)cc2cn[nH]c12` [Example 6, (R)-N-(3-(7-methyl-1H-indazole-5-yl)-1-(4-(1-methylpiperidine-4-yl)piperazine-1-yl)-1-oxopropan-2-yl)-4-(7-oxo-3,4,7,8-tetrahydro-2H-thiopyrano[2,3-b]pyridine-6-yl)piperidine-1-formamide], the “fb (%)” value came out at 90.0% with Plasma of SD rat and 76.7% in the data set with Plasma of human. Besides, the “Tmax shortened by” value is listed as 83.3% in data set [1] (intranasal), 75% in data set [3] (setting [4]) and 91.7% in data set [3] (setting [5]). Moreover, the “Tmax(DDM 0.2%)/ Tmax(DDM 0%)” value in data set [1] (intranasal) was determined as 16.7%. For the same compound, the Tmax in data set [1] (intranasal, 0.2% DDM) was found to be 10 min; in data set [1] (intranasal, not added with DDM (0%DDM)), 60 min; in data set [3] (intranasal, 0.05% alkyl glycoside), 15 min; in data set [3] (intranasal, 5% alkyl glycoside), 4.98 min; in data set [3] (intranasal, without alkyl glycoside), 60 min. Besides, in data set [2], the CLint was 2.4 µL/min/mg. The “% remaining (60 min)” value in data set [2] is 91.5%. In addition, the “Tmax(DDM 0.05%)/ Tmax(DDM 0%)” value in data set [3] (intranasal) is recorded as 25.0%. Besides, the “Tmax(DDM 5%)/ Tmax(DDM 0%)” value in data set [3] (intranasal) was 8.3%.

Source of the values: patent EP4781986A1, “PHARMACEUTICAL COMPOSITION HAVING IMPROVED PHARMACOKINETIC PROPERTIES” (Sichuan Purity Pharmaceutical Co., Ltd., priority 2023, dated 2025).
